Results: patent publication US9376449B2, “Indole carboxamide derivative” (Astellas Pharma Inc., priority 2012, dated 2016)

How the values were obtained:
human MT2 receptor = biological target: T1, human MT2 receptor (Homo sapiens, UniProt P49286); test: Activation of human MT2 receptor in receptor-expressing HEK293 cells (intracellular Ca2+, FLIPR); format: cell-based; conditions: for Emax: HEK293, maximum reaction by ramelteon taken as 100%, solvent only 0%; for EC50: HEK293 cells stably expressing human MT2 and Gq/i chimeric G-protein, intracellular Ca2+ by FLIPR
T1 sequence (P49286 1-362): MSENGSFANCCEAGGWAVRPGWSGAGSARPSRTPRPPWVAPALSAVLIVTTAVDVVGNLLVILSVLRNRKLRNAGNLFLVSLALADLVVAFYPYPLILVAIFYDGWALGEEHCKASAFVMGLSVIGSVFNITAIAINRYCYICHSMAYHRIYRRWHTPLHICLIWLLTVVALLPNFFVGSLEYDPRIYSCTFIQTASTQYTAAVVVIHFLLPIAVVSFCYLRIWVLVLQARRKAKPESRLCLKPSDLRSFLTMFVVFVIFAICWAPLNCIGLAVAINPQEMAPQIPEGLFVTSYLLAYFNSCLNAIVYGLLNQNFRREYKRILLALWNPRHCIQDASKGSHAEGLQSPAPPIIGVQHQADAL
Description: (§1) (1) Isolation of Human MT1 and MT2 Receptor and Construction of Expression Vector
(§2) A human MT1 receptor gene (GenBank Accession No.: NM_005958.3) and a human MT2 receptor gene (GenBank Accession No.: NM_005959.3) were each introduced into an expression vector pCDNA3.1/Zeo (Invitrogen, Inc.).
(§3) (2) Construction of Cells Stably Expressing Human MT1 and Human MT2 Receptor
(§4) The introduction was carried out according to the attached instructions, using a Lipofectoamine (registered trademark) 2000 Reagent (Invitrogen, Inc.). Zeocin and hygromycin were used as a resistant drug, and the cell was incubated for 15 days at 0.02 mg/mL and 0.05 mg/mL, respectively, thereby acquiring drug-resistant clones.
(§5) (3) Measurement of Intracellular Ca^2+ Concentration by FLIPR (Registered Trademark)
(§6) The respective stably expressing cells were dispensed into 96-well poly-D-lysine-coated plates (Falcon Co.) to 40,000 cells/well the day before the experiment, and incubated overnight in a DMEM (Invitrogen, Inc.) medium including 10% FBS at 37° C. and 5% CO2. The medium was replaced with a loading buffer (washing solution (Hank's balanced salt solution (HBSS), 20 mM HEPES-NaOH, 2.5 mM probenecid) including Fluo-4AM (Dojindo Co.) at 4 μM), and incubated for 1 hour at 37° C. and 5% CO2. Thereafter, the cells were washed with a plate washer (ELx405, BIO-TEK Instrument, Inc.) set with the washing solution, and set in an intracellular Ca^2+ concentration measuring systems (FLIPR (registered trademark), Molecular Device Co.). The test compound was dissolved in the washing solution in advance, diluted to a final concentration of −12 to −5 log M, set in a FLIPR (registered trademark) device together with the cells, and added to the cells in the device. At this time, a change in the intracellular Ca^2+ concentrations was measured.
(§7) Ex represents Example No. of the test compound.

urethral pressure = test: Effect of test compound on urethral pressure in anesthetized rats; format: in vivo, rat; conditions: for Increment value in the urethra pressures (mmHg): 0.1 mg/kg intravenously, urethane-anesthetized SD female rats; for urethra pressure increasing action: dose of 0.1 mg/kg
Text: Test Example 3 Test to Evaluate Effect of Test Compound on Urethral Pressure
It has been reported that an increase in the urethra pressure is useful for the treatment of urinary incontinence, particularly stress urinary incontinence (for example, Drugs, 64, 14, 1503-1516 (2004)). In order to confirm whether the compound of the present invention increases the urethra pressure and thus is useful for the treatment of urinary incontinence, particularly stress urinary incontinence, the following tests were carried out.
SD female rats were anesthetized with urethane and subjected to laparotomy. Then, the bladder apex was incised and a catheter was inserted from the bladder apex. Further, the catheter tip was ligated and fixed to be located in the proximal urethra portion. The catheter was connected to a pressure transducer and an infusion pump. Further, a catheter for administrating the compound was fitted into the femoral vein. Physiological saline was continuously infused into the urethra and the perfusion pressure in the urethra was measured. After the urethral pressure was stabilized, the test compound that had been dissolved in physiological saline, or physiological saline including 5% dimethylacetamide and 0.5% Cremophor was administered intravenously at 0.1 mg/kg, and a change in urethral pressures was measured.
Further, the results of administering an active metabolite of midodrine (ST-1059: purchased from CHEMIZON) (J. Urology, 118, 980-982 (1977)) which is an α1 adrenoceptor agonist and has an effect on stress urinary incontinence in rat doses (0.01 mg/kg) presumed to correspond to the clinical doses are referenced and shown in the Tables below. The increment value in the urethra pressures of ramelteon and the Example compounds of the present invention at the time of administration are shown in Table 4. Ex represents Example No. of the test compound.

[1] = CNS penetration: CSF to plasma unbound concentration ratio in rat; format: in vivo; conditions: CSF and plasma (unbound), iv; for Kp uu at 0.25 h: 15 minutes after intravenous administration, CCSF/Cplasma,u, read-out: Kp,uu,CSF,iv15min
Description: Test Example 4 Test for Evaluating CNS Penetration
(1) Measurement of Unbound Fraction (fp) in Rat Plasma
A test compound (100 μg/mL, 50% acetonitrile solution) at 1% (v/v) with respect to the amount of the plasma was added to rat plasma, and dispensed to a sample for a supernatant and a sample for the plasma. The sample for a supernatant was ultracentrifuged at 436,000×g and 37° C. for 140 minutes, and the sample for the plasma was incubated at 37° C. for 140 minutes.
After 140 minutes, the sample for a supernatant after the ultracentrifugation and the sample for the plasma were taken, and mixed with the blank plasma or the blank supernatant, respectively. Acetonitrile including an internal standard material was added to each of the samples, and after the centrifugation at 2150×g and 4° C. for 10 minutes the supernatant was injected into LC-MS/MS.
The unbound fraction in the plasma was calculated by the following equation.
(wherein fp: an unbound fraction in the plasma and D: a dilution rate of the plasma. fu,app=peak area ratio of supernatant sample/peak area ratio of the plasma sample, and peak area ratio=peak area of test compound/peak area of internal standard material).
(2) The CSF to Plasma Unbound Concentration Ratio in Rat
A 50% acetonitrile solution and an acetonitrile including internal standard material was added to the collected plasma or CSF. After centrifugation at 4° C. and 2150×g for 10 minutes, the supernatant was injected into LC-MS/MS, and the total concentration of the test compound in the plasma (Cplasma,t) and the concentration of the test compound in CSF (CCSF) were obtained. The unbound concentration in the plasma (Cplasma,u) of the test compound and the CSF-to plasma unbound concentration ratio (Kp,uu,CSF) of the test compound was calculated by the following equation.
as §7

human MT1 receptor = human MT1 receptor (Homo sapiens, UniProt P48039); test: Activation of human MT1 receptor in receptor-expressing HEK293 cells (intracellular Ca2+, FLIPR); format: cell-based; conditions: for Emax: HEK293, maximum reaction by ramelteon taken as 100%, solvent only 0%, read-out: MT1 Emax (%); for EC50: HEK293 cells stably expressing human MT1 and Gq/i chimeric G-protein, intracellular Ca2+ by FLIPR
Chain of human MT1 receptor (P48039 whole entry): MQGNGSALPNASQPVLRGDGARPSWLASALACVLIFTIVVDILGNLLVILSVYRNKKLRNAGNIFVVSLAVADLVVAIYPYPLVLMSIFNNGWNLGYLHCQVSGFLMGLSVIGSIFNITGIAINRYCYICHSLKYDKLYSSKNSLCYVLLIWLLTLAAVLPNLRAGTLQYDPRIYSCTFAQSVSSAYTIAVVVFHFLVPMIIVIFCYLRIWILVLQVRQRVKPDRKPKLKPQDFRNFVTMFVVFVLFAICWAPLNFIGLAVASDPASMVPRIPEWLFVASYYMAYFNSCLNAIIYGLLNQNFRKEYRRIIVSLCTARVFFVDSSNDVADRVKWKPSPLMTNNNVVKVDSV
Description: as §1, §2, §3, §4, §5, §6, §7

| Compound | Emax (human MT2 receptor) [%] | EC50 (human MT2 receptor) [nM] | Increment value in the urethra pressures (mmHg) (urethral pressure) | urethra pressure increasing action (urethral pressure; in words) | Kp uu at 0.25 h [1] | Emax (human MT1 receptor) [%] | EC50 (human MT1 receptor) [nM] | increment value in the urethra pressures compared with ST-1059 (urethral pressure; 0.1 mg/kg i.v. versus ST-1059 0.01 mg/kg, in words) | Kp uu at 10 min ([1]; 10 minutes after the intravenous administration) |
| --- | --- | --- | --- | --- | --- | --- | --- | --- | --- |
| CNC(=O)c1[nH]c2cc(F)c(OC)cc2c1CCNC(C)=O [Ex 17] | 94 | 58 | 9.0 ± 1.0 | good urethra pressure increasing action | 0.08 | 86 | 20 |  |  |
| CNC(=O)c1[nH]c2ccc(OC)cc2c1CCNC(=O)C(F)F [Ex 2, 3-{2-[(difluoroacetyl)amino]ethyl}-5-methoxy-N-methyl-1H-indole-2-carboxamide] | 109 | 28 | 10.6 ± 3.5 | good urethra pressure increasing action | 0.11 | 102 | 11 |  |  |
| CCC(=O)NCC[C@@H]1CCc2ccc3c(c21)CCO3 [Ramelteon, reference compound] | 100 | 1.1 | 11.1 ± 1.7 |  |  | 100 | 0.28 | equal to or more than that of ST-1059 | > 1 |
